Each structure is given as a SMILES string. Values after ≈ are worked out from the molar mass of the structure shown.

Data set [1] in a line: Kinetic solubility assay (HPLC external standard). It counts as physicochemical. The note with it: PBS pH 7.4 with 2% DMSO, PBS pH 7.4, 2% DMSO, 37° C. The procedure: This kinetic solubility assay assesses our compounds in pH 7.4 PBS, mimicking physiological conditions relevant to oral absorption and tumor targeting. Test solutions were prepared by mixing 10 μL of stock with 490 μL of PBS (pH 7.4, 2% DMSO), followed by shaking at 37° C. for 3 hours, centrifugation, and a 2× dilution with methanol. Solubility was quantified in μM using HPLC analysis on a C18 column at 35° C., with a 5-85% acetonitrile gradient and 20 μL injections, performed in duplicate.
The assay was conducted using a modified HPLC-based external standard method. For Solution Preparation, (1) Buffer: Phosphate-buffered saline (PBS) at pH 7.4; (2) Compound Stock Solutions: 10 mM concentration in DMSO; (3) Test Solutions: Mix 10 μL of the stock solution with 490 μL of PBS in a 2 mL EP tube (final 2% DMSO v/v), shake at 37° C. for 3 hours, centrifuge at 12,000 RPM for 5-10 minutes, take 100 μL of supernatant, add 100 μL methanol, mix well to use as the test solution. […] For Data Analysis, concentration calculations are based on peak area ratios, accounting for the 2× dilution factor.

For the next data set, the system named is rats. The note with it: doses as low as 10 mg/kg; cited from earlier work.
In another data set the test system is mice. The note with it: doses as low as 10 mg/kg; cited from earlier work.

As to `OCCNCC[C@@H](Oc1cc(Cl)cc2[nH]cnc12)c1ccccc1` [GT-6060, (R)-2-((3-((6-chloro-1H-benzo[d]imidazol-4-yl)oxy)-3-phenylpropyl)amino) ethan-1-ol], in data set [1], the concentration in solution (solubility at 3 h) came to 176 µM (≈ 60.8 µg/mL).
With `NCC[C@@H](Oc1cc(Cl)cc2[nH]cnc12)c1ccccc1` [GT-6041, (R)-3-((6-chloro-1H-benzo[d]imidazol-4-yl)oxy)-3-phenylpropan-1-amine], the concentration in solution in data set [1] (solubility at 3 h) came to 157 µM (≈ 47.3 µg/mL).
Turning to `CNCC[C@@H](Oc1cc(Cl)cc2[nH]ncc12)c1ccccc1` [GT-6059, (R)-3-((6-chloro-1H-indazol-4-yl)oxy)—N-methyl-3-phenylpropan-1-amine], in data set [1], the concentration in solution (solubility at 3 h) was 169 µM (≈ 53.5 µg/mL).
Consider `N=C(N)SCCc1ccc(CCSC(=N)N)cc1` [PBIT, S,S′-1,4-phenylene-bis(1,2-ethanediyl)bis-isothiourea], for which the acute toxicity entry in the data set with rats and with mice was “acutely toxic” in each case.
As to `NCC[C@@H](Oc1cc(Cl)cc2[nH]ncc12)c1ccccc1` [GT-6045], the solubility (as a rule, the concentration that dissolves in the medium under given conditions) at 3 h in data set [1] worked out at 188 µM (≈ 56.9 µg/mL).
As to `CNCC[C@@H](Oc1cc(Cl)cc2[nH]cnc12)c1ccccc1` [GT-6058, (R)-3-((6-chloro-1H-benzo[d]imidazol-4-yl)oxy)—N-methyl-3-phenylpropan-1-amine], the concentration in solution in data set [1] (solubility at 3 h) was 177 µM (≈ 55.8 µg/mL).

These data come from patent publication US20250250237A1, “ALKYLAMINE OR HETEROALKYLAMINE DERIVATIVES AS INHIBITORS OF NITRIC OXIDE SYNTHASES (NOS), PHARMACEUTICAL PRODUCTS THEREOF, AND METHODS THEREOF” (Gacter Inc., priority 2022, published 2025).
